Assay results taken from article PMC8010219, “Molecular basis for the interaction of cellular retinol binding protein 2 (CRBP2) with nonretinoid ligands” (Journal of Lipid Research, 2021).
Positions count from the first letter of the chain named. Read-outs that look alike come from different tables or passages of the source.

Legend:
human CRBP2 [1] = biological target: T1, human CRBP2 (Homo sapiens, UniProt P50120); parameters: method as in PMID 32195347; conditions: holo-CRBP2 titrated with ligand, cited from earlier work
T1 construct: inferred from the Ni-NTA purification; made in house; host or cells: Escherichia coli BL21(DE3)
T1 sequence (P50120 1-134): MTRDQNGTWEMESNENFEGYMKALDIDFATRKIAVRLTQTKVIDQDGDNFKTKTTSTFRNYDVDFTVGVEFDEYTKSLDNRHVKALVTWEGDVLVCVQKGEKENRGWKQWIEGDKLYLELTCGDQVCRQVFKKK

human CRBP2 [2] = biological target: T1, human CRBP2; assay: X-ray crystal structures of CRBP2 in complex with ligands (enantiomer seen in binding pocket); conditions: racemic mixture used for crystallization
Protocol: The crystallization conditions were identical to those published by Lee et al. ([9]). Human CRBP2 in complexes with nonretinoid ligands were crystallized using the sitting drop vapor diffusion method. Prior to setting up crystallization drops, CRBP2 (9 mg/ml) was incubated with 50 μM of ligand in 10 mM Tris-HCl (pH 8.0) and 150 mM NaCl for 20 min on ice. Protein samples were mixed in a 1:1 ratio with 1 μl of 0.1 M Tris-HCl (pH 8%) and 22–28% polyethylene glycol 3350. The wells were sealed and stored at room temperature. Crystals were collected, cryoprotected in 10% glycerol, 10% polyethylene glycol 2000 (v/v), and flash frozen in liquid nitrogen.
X-ray diffraction data were collected at the Advanced Photon Source Northeastern Collaborative Access Team 24-ID-C and 24-ID-E beamlines. Data reduction was performed using iMosflm software package ([17]). The structures were solved by molecular replacement with PHASER_MR ([18]) and the refined model of CRBP2 [Protein Data Bank (PDB) accession code: 6BTI] as a search model. Adjustments to the protein model were made with COOT ([19]), and the initial model was refined with PHENIX ([20]). […] The coordinates and structure factors for each of the structure analyzed in this report were deposited in the PDB under the following accession codes: 7JVG, 7JVY, 7JWD, 7JWR, 7K3I, 7JX2, and 7JZ5 (Table 2).

human CRBP2 [3] = biological target: T1, human CRBP2; assay: Chromophore (atROL) replacement fluorescence titration of holo-CRBP2; type: binding; conditions: for Kd: holo-CRBP2 titrated with ligand, 25°C, pH 7.4, average of at least three independent titrations, mean ± SD; for fold decrease in affinity (increase in Kd) as compared with 2-AG: ratio of Kd values versus 2-AG
Protocol: (§1) The chromophore replacement assay was performed as described by Silvaroli et al. ([12]). CRBP2 in complex with atROL was excited with photons at a wavelength of 285 nm. Fluorescence emission was monitored at 350 and 480 nm. Titration with an alternative ligand causes liberation of atROL from the binding pocket and lack of fluorescence resonance energy transfer between the tryptophan residues and the retinoid moiety. The net effect is decrease in the fluorescence signal at 480 nm and concomitant increase at 350 nm (Fig. 1A, B). The experiments were performed on PerkinElmer Life Science LS55 spectrofluorometer at 25°C, using a 1 cm quart cuvette. Three microliters of buffer, 67 mM phosphate-buffered saline (pH 7.4%), 5% glycerol (v/v) containing 1 μg/ml of CRBP2 were dispensed into the cuvette. Increasing concentrations of tested compounds were delivered in acetonitrile. […] The obtained fluorescence spectra corrected for the background. Analysis of the changes in the maximum emission values at the different concentrations of ligands was used to calculate Kd values using the saturation single ligand binding model (SigmaPlot 11 software package; Systat Software). Each Kd listed in Table 1 represents an average value obtained from at least three independent titrations.

CRBP2^T51I/V62M = biological target: T2, CRBP2^T51I/V62M (Homo sapiens, UniProt P50120, T52I/V63M); assay: Chromophore (atROL) replacement fluorescence titration of the mutant protein; type: binding
T2 construct: made in house; host or cells: Escherichia coli BL21(DE3)
T2 sequence (P50120 1-134 T52I/V63M): T1 sequence (P50120 1-134) with T52I, V63M
Excerpt: To introduce substitute mutations T51/I and V62/M, cDNA of CRBP2 was cloned into pCR 2.1 vector (Thermo Fisher Scientific). The mutations were introduced by PCR using 5’ phosphorylated primers of the following sequences: T51/I: forward, […]; reverse, […]; V62/M: forward, […]; reverse, […]. The presence of desired substitutions was verified by sequencing. To obtain mutated proteins, their cDNAs harboring these changes were cloned into pET3b vector and expressed and purified as described above.
as §1, with “cuvette.” for “cuvette. Increasing concentrations of tested compounds were delivered in acetonitrile.”, “Analysis of the changes in the maximum emission values at the different concentrations of ligands was used to calculate Kd values using the saturation single ligand binding model (SigmaPlot 11 software package; Systat Software). Each Kd listed in Table 1 represents an average value obtained from at least three independent titrations.” left out

CRBP1 = biological target: CRBP1; parameters: method as in PMID 27830500; conditions: atROL binding to CRBP1; cited from earlier work

Kd (human CRBP2 [3]) | fold decrease in affinity (increase in Kd) as compared with 2-AG (human CRBP2 [3]) | SMILES | also measured
89.3 ± 14.3 nM |  | CCCCC/C=C\C/C=C\C/C=C\C/C=C\CCCC(=O)SCC(O)CO (stereo not drawn) [1-ASG, Arachidonoyl-1-thio-glycerol] | fold increase of the Kd value on substitution of the ester group with a thioester bond (human CRBP2 [3]; as compared with 1-AG): ~2 fold; enantiomer exclusively present in the binding pocket (electron density) (human CRBP2 [2]): R-enantiomer
780 ± 86.5 nM | 29 fold | CCCCCCCCCC(=O)OCC(O)CO (stereo not drawn) [1-DG, 1-Decanoyl glycerol] | 
97.1 ± 27.6 nM |  | CCCCC/C=C\C/C=C\CCCCCCCC(=O)OCC(O)CO (stereo not drawn) [1-LG, 1-Linoleoyl glycerol] | 
153 ± 7.3 nM |  | CCCCCCCCCCCCCCCCOCC(O)CO (stereo not drawn) [1-O-HG, 1-O-hexadecyl glycerol] | 
172 ± 8.8 nM | over 6 fold | CCCCCCCCCCCC(=O)OC(CO)CO [2-LaG, 2-Lauroyl glycerol] | 
51.2 ± 7.7 nM |  | CCCCCCCCCCCCCCCC(=O)OC(CO)CO [2-PG, 2-Palmitoyl glycerol] | 
54.8 ± 9.8 nM | 2 fold | CCCCCCCCCCCCCCCCCC(=O)OC(CO)CO [2-SG, 2-Stearoyl glycerol] | 
217 ± 14.4 nM | eight times higher | CCCCC/C=C\C/C=C\C/C=C\C/C=C\CCCCCC(=O)O [ADA, Docosatetraenoic acid] | 

Further lines, the compound ahead of its results:

SMILES | Kd (human CRBP2 [3]) | fold decrease in affinity (increase in Kd) as compared with 2-AG (human CRBP2 [3]) | also measured
CCCCC/C=C\C/C=C\C/C=C\C/C=C\CCCC(=O)OCC(O)CO (stereo not drawn) [1-AG, 1-Arachidonoyl glycerol] |  |  | Kd (human CRBP2 [1]): 37.9 ± 3.3 nM; enantiomer exclusively present in the binding pocket (electron density) (human CRBP2 [2]): S-enantiomer
CCCCCCCCCCCCCCCCCCCC(=O)OCC(O)CO (stereo not drawn) [1-ArG, 1-Arachidoyl glycerol] | 133 ± 33.1 nM | ~5 fold | 
CCCCC/C=C\C/C=C\C/C=C\C/C=C\CCCC(=O)OC(CO)CO [2-AG, 2-Arachidonoyl glycerol] |  |  | Kd (human CRBP2 [1]): 27.1 ± 2.5 nM; Kd (CRBP2^T51I/V62M; CRBP2 T51I/V62M double mutant): 447 ± 46.1 nM; fold decrease in the affinity at the mutant (CRBP2^T51I/V62M; CRBP2^T51I/V62M versus WT CRBP2): over 16 fold
CCCCC/C=C\C/C=C\C/C=C\C/C=C\CCCCOC(CO)CO [2-AGE, 2-Arachidonoyl glycerol ether] | 45.7 ± 2.7 nM |  | 
CCCCC/C=C\C/C=C\CCCCCCCC(=O)OC(CO)CO [2-LG, 2-Linoleoyl glycerol] |  |  | Kd (human CRBP2 [1]; read-out: Kd): 40 ± 4.4 nM
CCCCCCCC/C=C\CCCCCCCC(=O)OC(CO)CO [2-OG, 2-Oleoyl glycerol] |  |  | Kd (human CRBP2 [1]; read-out: Kd): 65.4 ± 4.4 nM
CCCCC/C=C\C/C=C\C/C=C\C/C=C\CCCC(=O)NCCO [AEA, Arachidonoyl ethanolamide] |  | ~25 fold | Kd (human CRBP2 [1]; read-out: Kd): 663 ± 24 nM
CC1=C(/C=C/C(C)=C/C=C/C(C)=C/CO)C(C)(C)CCC1 [atROL, all-trans-retinol] |  |  | Kd (CRBP1): ~10 nM
